In paper PMC3379994, “Comprehensive Analysis of Interactions between the Src-Associated Protein in Mitosis of 68 kDa and the Human Src-Homology 3 Proteome” (PLoS ONE, 2012):
pKd: −log10 of the molar value.

Assays:
β-Pix-SH3 = biological target: T1, β-Pix-SH3 (Homo sapiens, UniProt Q14155); conditions: cited from earlier work
T1 construct: gene ARHGEF7; β-Pix SH3 domain
T1 sequence (Q14155 184-243): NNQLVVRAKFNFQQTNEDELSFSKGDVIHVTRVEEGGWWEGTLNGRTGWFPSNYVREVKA
Text: Remarkably, Kd values calculated for the Sam68-SH3-interactions (considering the aforementioned correction value) lie in the low nanomolar range (cf. Fig. 1B). This is unexpected for SH3 domains, whose affinities are considered to lie in the low micromolar range [2], [51]. However, critical examination of the literature challenges the generality of the latter proposition. […] This can have a significant influence on binding-strength, as illustrated for instance for the Abp1-SH3 domain, comprising a Kd-value of 100 µM to a 14-mer ligand-peptide, and 40 µM after elongation to a 17-mer peptide. Nevertheless, some values obtained for Sam68-SH3 interactions still are one order of magnitude lower than even the best reported in the literature. Likely, this is due to an artifical avidity effect resulting from the use of the SH3-phages. As the SH3 domains bind to more than one of the PxxP-motifs, it is conceivable that one phage-particle docks to two or more PxxP-motifs of an individual Sam68 molecule via multiple SH3 domains. Consequently, even after dissociation of one SH3-PxxP-pair, the phage would still be retained by the protein. Kinetically, this corresponds to a decrease in the off-rate and concomitantly to a decrease in the Kd value. The affinity gain of the interaction is not due to cooperativity, as is evident from the Hill-transformed ELISA data yielding Hill-coefficients α of 1.0. […]

Hck = Hck (Homo sapiens, UniProt P08631); conditions: n = 3
Hck, sequence (P08631 78-138): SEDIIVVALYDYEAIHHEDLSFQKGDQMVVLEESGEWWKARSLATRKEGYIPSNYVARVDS
Protocol: (§1) To characterize the binding of SH3-phages to recombinant proteins, phage-ELISA analyses were performed. First, 1 µg of recombinant protein per well was immobilized on 96-well MaxiSorp plates (Nunc) over night. After washing thrice with PBS/T (PBS with 0.1 % Tween-20) and blocking with 5 % BSA in PBS, dilution-series of the respective phage-supernatants in 2×YTAmp,Kana were added and incubated for 1 h. After washing 10 times with PBS/T, an HRP-coupled anti-M13-antibody (GE Healthcare, 27-9421-01) diluted 1 : 5000 in blocking solution was added for 1 h. After washing again 10 times, TMB substrate solution was added, the reaction finally stopped by addition of 0.5 M H2SO4, and the result read out by measuring OD450.
(§2) First, we aimed at quantifying the binding affinities of the SH3-displaying phages to Sam68. To this end, we established a phage-ELISA procedure to separately analyse phage supernatants of the ten individual SH3-phages. In brief, His-Sam68 was coated to a 96-well plate, blocked and incubated with a dilution series of phage supernatants. Finally, bound phages were detected using an anti-M13-specific HRP-coupled antibody. As depicted in Fig. 1A, binding curves were obtained that are typical for a simple ligand-receptor relationship as is expected for an SH3-domain-PxxP-interaction showing no allosteric effects. Kd-values can not be deduced from these curves in the first instance, because the concentration of SH3 domains in the supernatants is unknown due to each phage particle presenting many copies on its surface. […]
(§3) Figure 1 Analysis of Sam68-binding SH3 domains in vitro. […] The amounts of bound phages were measured using a horseradish peroxidase-conjugated anti-M13-specific antibody with TMB-substrate detection at 450 nm (mean of three independent experiments, normalized to maximum OD-values). […] Bound proteins were eluted and Sam68 was detected by western blot analysis. […]

IS2#3 = biological target: T2, IS2#3 (Homo sapiens, UniProt Q9NZM3); conditions: n = 3
T2 construct: gene ITSN2
T2 sequence (Q9NZM3 981-1039): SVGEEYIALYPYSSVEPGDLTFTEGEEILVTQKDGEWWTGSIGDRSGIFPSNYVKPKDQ
Protocol: as §1, §2, §3

Src = Src (Homo sapiens, UniProt P12931); conditions: n = 3
Protocol: as §1, §2, §3

Nck1#2 = Nck1#2 (Homo sapiens, UniProt P16333); conditions: n = 3
Protocol: as §1, with “OD450. […]” for “OD450.”
First, we aimed at quantifying the binding affinities of the SH3-displaying phages to Sam68. […] Finally, bound phages were detected using an anti-M13-specific HRP-coupled antibody. […]
as §3

Pak2
pKd (β-Pix-SH3): 7.23

Src-associated in mitosis 68 kDa (KHDRBS1), full-length, N-terminally His-tagged recombinant [Sam68]
pKd (Hck): 7.51 | pKd (IS2#3): 7.23 | pKd (Src): 8.22 | pKd (Nck1#2): 7.51
